One compound from patent publication US11185517B2, “Pharmaceutical composition for treatment or remission of chronic myelogenous leukemia” (Delta-Fly Pharma, Inc., priority 2016, dated 2021) can be followed below.

The data set relates to patient with chronic myelogenous leukemia. The data set can be described thus: Administration of Tasigna (nilotinib) to the patient with chronic myelogenous leukemia. Type of data set: in vivo, human. The following applies: CML patient. How it is done:
To a patient with chronic myelogenous leukemia, Tasigna (registered trademark) (nilotinib) was administered from Jan. 9, 2014.
The initially administered Tasigna (registered trademark) (nilotinib) had been developed as a therapeutic agent for the transitional stage of chronic myelogenous leukemia from the chronic stage to the acute stage.

In the case of `Cc1cn(-c2cc(NC(=O)c3ccc(C)c(Nc4nccc(-c5cccnc5)n4)c3)cc(C(F)(F)F)c2)cn1` [Tasigna, nilotinib], the therapeutic effect result (considered at the acute stage) is recorded as “no therapeutic effect”. Besides, the adverse effects entry (administration stopped after 5 days) is listed as “strong adverse effects were observed”.
